Each block holds one compound with its values, some of them ahead of it.
Tests used:
[1] = Brain distribution study following i.v. bolus and i.v. infusion in rats; details: rat; for δ brain concentration at SS / δ plasma concentration at SS: difference between the two time points, (SD)
[2] = Plasma protein binding, rat plasma; format: in vitro ADME; details: pH 7.5
[3] = Plasma protein binding by equilibrium dialysis, mouse plasma; format: in vitro ADME; details: pH 7.5
[4] = Plasma protein binding by equilibrium dialysis, human plasma; format: in vitro ADME; details: pH 7.5
[5] = Kinetic lipid membrane binding assay; format: in vitro ADME, porcine; details: pig, pH 7.4
[6] = system: KM12-Luc intracranial tumor; experiment: Efficacy in KM12-Luc intracranial tumor xenograft mouse model; format: in vivo, athymic nu/nu mice; details: 28 days
BNN2 and BNN4 gliomas = details: clinically relevant systemic exposures; cited from earlier work
human P-gp = human P-gp (Homo sapiens, UniProt P08183); format: in vitro ADME; details: LLC-PK1
[7] = cited from earlier work; for Cave,ss, reported clinical concentration: patients, efficacious dose
mouse P-gp = mouse P-gp (Mus musculus, UniProt P21447); format: in vitro ADME; details: LLC-PK1
[8] = Single oral-dose in vivo PK study of rats; details: rat
[9] = Plasma pharmacokinetics in KM12-Luc ITC tumor-bearing mice; format: in vivo, Balb/c nude mice; details: for AUC(0-t): Balb/c nude, mouse, in vivo, po
P-gp = details: cited from earlier work
[10] = rat plasma; from FDA pharmacology reviews; cited from earlier work
[11] = system: breast cancer resistance protein (BCRP); details: cited from earlier work
TRKA/B/C = details: read-out: IC50 against TRKA/B/C; cited from earlier work
[12] = recommended human oral dose of 600 mg/kg q.d.

Chain of mouse P-gp (P21447 whole entry): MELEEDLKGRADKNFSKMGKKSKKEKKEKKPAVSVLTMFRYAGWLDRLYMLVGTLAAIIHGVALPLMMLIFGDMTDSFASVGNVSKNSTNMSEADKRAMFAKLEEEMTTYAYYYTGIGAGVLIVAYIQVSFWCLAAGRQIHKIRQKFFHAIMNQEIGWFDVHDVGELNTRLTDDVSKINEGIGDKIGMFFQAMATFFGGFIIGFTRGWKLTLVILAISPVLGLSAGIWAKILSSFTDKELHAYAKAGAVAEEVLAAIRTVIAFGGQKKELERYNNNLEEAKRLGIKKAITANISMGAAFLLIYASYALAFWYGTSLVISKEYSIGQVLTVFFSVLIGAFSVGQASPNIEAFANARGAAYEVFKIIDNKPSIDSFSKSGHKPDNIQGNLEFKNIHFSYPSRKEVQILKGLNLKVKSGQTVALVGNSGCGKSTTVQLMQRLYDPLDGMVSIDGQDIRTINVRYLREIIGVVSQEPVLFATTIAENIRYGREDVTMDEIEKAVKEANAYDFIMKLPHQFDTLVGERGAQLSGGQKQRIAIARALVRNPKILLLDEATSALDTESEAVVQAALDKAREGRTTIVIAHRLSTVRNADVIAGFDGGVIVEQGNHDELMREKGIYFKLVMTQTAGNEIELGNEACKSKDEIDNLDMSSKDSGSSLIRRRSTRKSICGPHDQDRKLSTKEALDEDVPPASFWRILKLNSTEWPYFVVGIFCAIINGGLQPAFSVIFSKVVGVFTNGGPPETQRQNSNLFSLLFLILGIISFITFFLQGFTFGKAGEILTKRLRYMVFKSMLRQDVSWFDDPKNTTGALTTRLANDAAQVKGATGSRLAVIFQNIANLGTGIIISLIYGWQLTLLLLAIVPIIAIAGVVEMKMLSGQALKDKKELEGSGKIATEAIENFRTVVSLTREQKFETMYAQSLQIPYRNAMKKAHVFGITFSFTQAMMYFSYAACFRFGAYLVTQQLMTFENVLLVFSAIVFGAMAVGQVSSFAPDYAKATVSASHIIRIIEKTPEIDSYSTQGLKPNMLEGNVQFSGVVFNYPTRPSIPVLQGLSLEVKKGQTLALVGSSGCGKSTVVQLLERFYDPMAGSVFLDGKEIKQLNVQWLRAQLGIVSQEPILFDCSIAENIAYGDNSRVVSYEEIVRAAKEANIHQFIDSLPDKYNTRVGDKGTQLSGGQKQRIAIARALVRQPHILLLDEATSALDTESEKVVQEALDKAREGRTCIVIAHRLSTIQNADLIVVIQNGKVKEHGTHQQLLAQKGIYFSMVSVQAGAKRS
Chain of human P-gp (P08183 whole entry): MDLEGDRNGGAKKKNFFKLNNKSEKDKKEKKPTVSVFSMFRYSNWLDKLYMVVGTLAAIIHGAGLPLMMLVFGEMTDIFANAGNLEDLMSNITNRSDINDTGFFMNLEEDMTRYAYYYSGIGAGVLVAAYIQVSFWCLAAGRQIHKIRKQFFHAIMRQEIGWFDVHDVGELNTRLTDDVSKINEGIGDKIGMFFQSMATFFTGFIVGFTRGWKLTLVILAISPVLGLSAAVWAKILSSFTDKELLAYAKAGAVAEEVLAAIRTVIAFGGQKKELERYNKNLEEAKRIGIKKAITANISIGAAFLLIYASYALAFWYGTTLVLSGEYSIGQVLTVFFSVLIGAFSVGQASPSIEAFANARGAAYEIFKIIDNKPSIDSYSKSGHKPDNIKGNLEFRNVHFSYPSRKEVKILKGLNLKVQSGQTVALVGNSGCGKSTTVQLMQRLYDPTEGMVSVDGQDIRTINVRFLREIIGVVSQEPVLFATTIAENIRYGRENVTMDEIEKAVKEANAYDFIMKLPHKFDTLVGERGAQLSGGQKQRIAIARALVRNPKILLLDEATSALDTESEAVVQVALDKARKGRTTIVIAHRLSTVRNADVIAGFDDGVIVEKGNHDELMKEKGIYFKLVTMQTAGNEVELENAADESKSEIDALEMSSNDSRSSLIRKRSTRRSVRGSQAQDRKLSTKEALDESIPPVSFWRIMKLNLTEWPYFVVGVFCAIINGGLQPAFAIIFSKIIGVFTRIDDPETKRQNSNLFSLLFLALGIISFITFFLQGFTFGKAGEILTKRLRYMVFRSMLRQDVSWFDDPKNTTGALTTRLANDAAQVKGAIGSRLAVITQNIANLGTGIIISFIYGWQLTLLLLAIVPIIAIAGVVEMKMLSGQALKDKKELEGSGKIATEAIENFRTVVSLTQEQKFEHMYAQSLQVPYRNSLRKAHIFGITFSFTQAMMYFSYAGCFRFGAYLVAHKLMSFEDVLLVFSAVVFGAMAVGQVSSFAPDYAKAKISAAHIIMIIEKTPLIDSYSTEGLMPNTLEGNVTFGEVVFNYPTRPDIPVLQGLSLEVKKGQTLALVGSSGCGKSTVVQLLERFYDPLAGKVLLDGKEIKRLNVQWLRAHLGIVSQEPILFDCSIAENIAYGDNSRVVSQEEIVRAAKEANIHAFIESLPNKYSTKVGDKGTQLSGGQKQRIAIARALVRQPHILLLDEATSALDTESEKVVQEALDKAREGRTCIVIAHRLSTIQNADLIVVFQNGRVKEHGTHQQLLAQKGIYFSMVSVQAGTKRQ

Structure (SMILES): CN1CCN(c2ccc(C(=O)Nc3n[nH]c4ccc(Cc5cc(F)cc(F)c5)cc34)c(NC3CCOCC3)c2)CC1 [Entrectinib, entrectinib]
Kp at 5 h ([1]; male, Sprague Dawley, in vivo, Measured CSF/Cu,p ratio, 5 h): 0.25
Kp at 6 h ([1]; male, Sprague Dawley, in vivo, Measured CSF/Cu,p ratio, 6 h): 0.18
δ brain concentration at SS [1]: 276 (71.2–186) nM
δ plasma concentration at SS [1]: 140 (109–430) nM
δ brain concentration at SS ([1]; listed as entrectinib): 276 nM
δ plasma concentration at SS ([1]; listed as entrectinib): 140 nM
fraction unbound at 5 h [2]: 0.0032 ± 0.0009
fraction unbound at 5 h [3]: 0.0034 ± 0.0003
fraction unbound at 5 h [4]: 0.0022 ± 0.0005
half-life at 10 µM [5]: 9.6 min
Survival through day 28 ([6]; 1 mg/kg b.i.d. oral): 0%
Survival through day 28 ([6]; 5 mg/kg b.i.d. oral): 11%
Survival through day 28 ([6]; 10 mg/kg q.d. oral): 67%
Survival through day 28 ([6]; 15 mg/kg b.i.d. oral): 100%
Survival through day 28 ([6]; 30 mg/kg q.d. oral): 100%
Survival through day 28 ([6]; 60 mg/kg b.i.d. oral): 100%
Tolerability ([6]; all dose levels tested (1, 5, 15, 60 mg/kg b.i.d.; 10, 30 mg/kg q.d.)): well tolerated
antitumor effect in intracranial NTRK1 fusion-positive glioma model (BNN2 and BNN4 gliomas): tumor growth inhibition and full survival benefit
Papp A→B at 3.5 h, 1 µM (human P-gp): 1.35 ± 0.34 ×10⁻⁶ cm/s
Papp B→A at 3.5 h, 1 µM (human P-gp): 19.7 ± 0.5 ×10⁻⁶ cm/s
Cave,ss, reported clinical concentration [7]: 2000 nM
AUC24h at SS in patients [7, 12]: 48 µM·h
estimated average plasma concentration in patients [7, 12]: approximately 2.0 µM
Papp A→B at 3.5 h, 1 µM (mouse P-gp): 0.99 ± 0.04 ×10⁻⁶ cm/s
Papp B→A at 3.5 h, 1 µM (mouse P-gp): 25.5 ± 1.9 ×10⁻⁶ cm/s
Kp ([8]; brain / plasma, po, 20 mg/kg): 0.185
concentration in the CSF ([8]; single oral dose 20 mg/kg, inferior to the LLOQ, data not shown): < 1 nM
AUC(0-t) ([9]; 2 mg/kg/day): 1.3 µM·h
AUC(0-t) ([9]; 10 mg/kg/day): 11.3 µM·h
AUC(0-t) ([9]; 30 mg/kg): 24.5 to 54.8 µM·h
AUC(0-t) ([9]; 30 mg/kg/day): 38.3 µM·h
AUC(0-t) ([9]; 60 mg/kg/day): 45.3 µM·h
AUC(0-t) ([9]; 120 mg/kg/day): 99.9 µM·h
average plasma concentration (AUC24h/24 hours) ([9]; oral, daily dose of 30 mg/kg): ~ 1.6 µM

Papp B→A at 3.5 h, 1 µM (human P-gp): 12.1 ± 0.73 ×10⁻⁶ cm/s
efflux ratio at 3.5 h, 1 µM (human P-gp): 11
Papp A→B at 3.5 h, 1 µM (mouse P-gp): 1.22 ± 0.1 ×10⁻⁶ cm/s
Papp B→A at 3.5 h, 1 µM (mouse P-gp): 12.5 ± 0.28 ×10⁻⁶ cm/s
efflux ratio at 3.5 h, 1 µM (mouse P-gp): 10
Structure (SMILES): C[C@H]1O[C@@H](O[C@H]2[C@@H](O)C[C@H](O[C@H]3[C@@H](O)C[C@H](O[C@H]4CC[C@@]5(C)[C@H](CC[C@@H]6[C@@H]5C[C@@H](O)[C@]5(C)[C@@H](C7=CC(=O)OC7)CC[C@]65O)C4)O[C@@H]3C)O[C@@H]2C)C[C@H](O)[C@@H]1O [Digoxin, digoxin]

Kp at 5 h ([1]; male, Sprague Dawley, in vivo): 0.041
Kp at 6 h ([1]; male, Sprague Dawley, in vivo): 0.028
δ brain concentration at SS [1]: 87 (12.1–131) nM
δ plasma concentration at SS [1]: 12 (47.9–53.7) nM
half-life at 10 µM [5]: 7.4 min
Papp A→B at 3.5 h, 1 µM (human P-gp): 1.38 ± 0.03 ×10⁻⁶ cm/s
Papp B→A at 3.5 h, 1 µM (human P-gp): 38.8 ± 1.7 ×10⁻⁶ cm/s
Papp A→B at 3.5 h, 1 µM (mouse P-gp): 1.2 ± 0.15 ×10⁻⁶ cm/s
Papp B→A at 3.5 h, 1 µM (mouse P-gp): 34.4 ± 1.68 ×10⁻⁶ cm/s
Structure (SMILES): C[C@@H](Oc1cc(-c2cnn(C3CCNCC3)c2)cnc1N)c1c(Cl)ccc(F)c1Cl [Crizotinib, crizotinib]
known substrate for P-gp (P-gp): known substrates for P-gp
Cave,ss, reported clinical concentration [7]: 874 nM
Fu in plasma [10]: 0.057

Kp at 4 h ([1]; male, Sprague Dawley, in vivo): 0.027
Kp at 5 h ([1]; male, Sprague Dawley, in vivo): 0.031
δ brain concentration at SS [1]: 1.6 (3.74–5.60) nM
δ plasma concentration at SS [1]: 2 (46.3–82.2) nM
half-life at 10 µM [5]: 6.2 min
Papp A→B at 3.5 h, 1 µM (human P-gp): 1.85 ×10⁻⁶ cm/s
Papp B→A at 3.5 h, 1 µM (human P-gp): 18.2 ± 3.7 ×10⁻⁶ cm/s
efflux ratio at 3.5 h, 1 µM (human P-gp): 10
Papp A→B at 3.5 h, 1 µM (mouse P-gp): 0.82 ± 0.07 ×10⁻⁶ cm/s
Papp B→A at 3.5 h, 1 µM (mouse P-gp): 16.1 ± 0.7 ×10⁻⁶ cm/s
efflux ratio at 3.5 h, 1 µM (mouse P-gp): 20
Structure (SMILES): O=C(Nc1cnn2ccc(N3CCC[C@@H]3c3cc(F)ccc3F)nc12)N1CC[C@H](O)C1 [Larotrectinib, larotrectinib]
known substrate for P-gp (P-gp): known substrates for P-gp
substrate of breast cancer resistance protein (BCRP) [11]: substrate
Cave,ss, reported clinical concentration [7]: 423 nM
IC50 (TRKA/B/C): 5 to 11 nM
Fu in plasma [10]: 0.349
